# Reference: publication PMC6804264, “Enlarged Pore Size Chiral Mesoporous Silica Nanoparticles Loaded Poorly Water-Soluble Drug Perform Superior Delivery Effect” (Molecules, 2019)
# Tests used:
# [1] = In vivo pharmacokinetics after oral (intragastric) administration; conditions: male, Wistar, rat, rats, 40 mg/kg NMS, plasma
# Experimental: 9 Male Wistar rats weighing 200 ± 20 g were randomly split into three groups (A group, NMS; B group, NMS/CMSN; C group, NMS/E-CMSN) and fasted for 12 h but given free access to water prior to the experiment. The three samples were suspended in 1.5 mL normal saline with the drug dose of 40 mg/kg and then orally administered (intragastric administration) to rats. Blood media (0.5 mL) of each animal was collected via the suborbital vein at different time intervals after administration and immediately centrifuged at 8000 rpm for 10 min to collect plasma. Subsequently, the obtained plasma was then stored at […] until analysis. 200 μL plasma sample was mixed with 80 μL of an internal standard solution (0.5 mg/mL) and 400 μL acetonitrile. The mixture was vortexed for 2 min. After centrifugation at 10,000 rpm for 5 min, the supernatant of each sample (20 μL) was subjected to HPLC analysis. The working conditions for HPLC analysis included: Mobile phase: methanol: pH 7.3 potassium dihydrogen phosphate buffer (65:35, v/v); Column temperature: 30 °C; Analysis wavelength: 370 nm; Flow rate: 1.0 mL/min.
# [2] = Contact angle measurement (wetting property); format: physicochemical; conditions: pH 6.8 PBS; pH 6.8 PBS including trysin (Figure 6)
# Experimental: To study the wettability differences after loading NMS into the two carriers, dynamic contact angle measurement was performed using JCY series (Shanghai, China). The working conditions covered: Automatic contact angle meter model, pressurized tablet of sample, as well as a drop of dissolution medium (2 μL). The measurement was started when dissolution medium dropped onto the tablet.
# [3] = tested on: right hind ankle swelling after carrageenan injection into the paw; assay: Anti-inflammatory pharmacodynamics (carrageenan paw model, right hind ankle perimeter); format: in vivo, male Sprague–Dawley rats; conditions: rats, oral, 40 mg/kg NMS
# Experimental: Right hind ankle perimeter of rats was ascertained to study the anti-inflammatory biological effect of […] or NMS/E-CMSN. Twelve male Sprague-Dawley rats (200 ± 20 g) were separated into four groups (Group A: Normal saline; Group B: NMS; Group C: NMS/CMSN; Group D: NMS/E-CMSN) and then fasted overnight before experiment. The rats in Group B, Group C and Group D were administered orally with corresponding nanoparticles containing 40 mg/kg NMS, while the rats in Group A were administered orally with normal saline. Afterwards, the perimeters of right hind ankles were ascertained. After half an hour, 0.1 mL 1% carrageenan solution was injected subcutaneously into the paw of each rat. […] Then, the following parameters were calculated. (2) Repressionrate(%)=([…]0)positive (3) Swelling rate(%)=Ct-C0/C0×100 where C0 denotes original perimeter of right hind ankle; Ct is the measured perimeter of right hind ankle.
# [4] = stated in the introduction, no reference given; cited from earlier work
compound,measurement,setting,value
"CS(=O)(=O)Nc1ccc([N+](=O)[O-])cc1Oc1ccccc1 [NMS, nimesulide]",AUC(0-t),[1]; n = 3,199 ± 66.6 µg·h/mL
same,Cmax,[1]; n = 3,25400 ± 9680 ng/mL
same,Tmax,[1]; n = 3,4 h
same,MRT last,"[1]; n = 3, read-out: MRT(0–t)",5.73 ± 0.354 h
same,half-life,"[1]; n = 3, read-out: t1/2z (converted)",5.08 ± 2.81 h
same,wetting property / contact angle,[2],poor water wetting property
same,time at which anti-inflammatory function started,[3],0.5 h
same,anti-inflammatory effect according to swelling rate profiles,[3]; 0.5-4 h,exerted anti-inflammatory pharmacodynamics effect
same,LogP value,[4],3.79
